These results are taken from patent US7732449B2, “Inhibitors of cathepsin S” (IRM LLC, priority 2003, dated 2010).

Read-outs that look alike come from different tables or passages of the source.

Holding throughout (assay type): biochemical
Assay [1] has as its target Cathepsin S (Homo sapiens, UniProt P25774). As to the kind of experiment: Cathepsin S inhibition, fluorogenic peptide substrate kinetic assay.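 Note: cleavage rate of a coumarin-labelled peptide substrate (50 µM) read as fluorescence increase at Ex 380 nm and Em 450 nm, relative to inhibitor-free control reactions.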
Assay [2] addresses T1, Cathepsin K (Homo sapiens, UniProt P43235).
T1 sequence (P43235 115-329): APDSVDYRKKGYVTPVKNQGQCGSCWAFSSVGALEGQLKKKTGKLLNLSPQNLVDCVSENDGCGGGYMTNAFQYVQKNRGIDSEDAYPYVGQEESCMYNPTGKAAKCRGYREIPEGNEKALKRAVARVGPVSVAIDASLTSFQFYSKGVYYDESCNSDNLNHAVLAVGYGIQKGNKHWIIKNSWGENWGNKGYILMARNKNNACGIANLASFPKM
Briefly: Cathepsin K inhibition, fluorogenic peptide substrate kinetic assay (selectivity). The note with it: ratio of cathepsin K inhibition constant to cathepsin S inhibition constant.

Assay [3] concerns the target Cathepsin L (Homo sapiens, UniProt P07711). As to the kind of experiment: Cathepsin L inhibition, fluorogenic peptide substrate kinetic assay (selectivity). The note with it: ratio of cathepsin L inhibition constant to cathepsin S inhibition constant.
The target of assay [4] is Cathepsin B (Homo sapiens, UniProt P07858). Briefly: Cathepsin B inhibition, fluorogenic peptide substrate kinetic assay (selectivity).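 Note: value is the cathepsin B inhibition constant divided by the cathepsin S one, each from kinetic fluorescence readings (ex 380 nm, em 450 nm) of a 10 µM coumarin peptide substrate.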 The note with it: ratio of cathepsin B inhibition constant to cathepsin S inhibition constant.
[5] abbreviates: Cathepsin S inhibition constant, pH5.5, 20 minutes preincubation at room temperature, read-out: Ki Cat. S.

Chain of Cathepsin S (P25774 115-331, species assumed): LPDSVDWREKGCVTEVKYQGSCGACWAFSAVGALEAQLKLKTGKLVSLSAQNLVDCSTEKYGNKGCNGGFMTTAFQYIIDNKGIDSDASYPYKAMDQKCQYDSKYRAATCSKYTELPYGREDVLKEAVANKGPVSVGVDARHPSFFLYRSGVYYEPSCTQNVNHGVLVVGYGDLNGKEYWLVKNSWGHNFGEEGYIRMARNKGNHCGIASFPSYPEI
Chain of Cathepsin L (P07711 114-333, species assumed): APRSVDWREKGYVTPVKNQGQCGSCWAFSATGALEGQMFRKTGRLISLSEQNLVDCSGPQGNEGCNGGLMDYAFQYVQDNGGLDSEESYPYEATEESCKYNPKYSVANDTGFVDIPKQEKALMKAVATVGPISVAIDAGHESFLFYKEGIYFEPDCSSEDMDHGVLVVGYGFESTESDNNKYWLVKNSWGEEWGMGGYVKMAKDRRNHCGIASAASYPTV

One may read the Ki as the dissociation constant of the complex between target and ligand, obtained from inhibition or displacement. As for `C[C@@H](CNc1ccc(OC(F)(F)F)cc1)NC(=O)[C@@H](CC(=O)N1CCOCC1)c1ccccc1` [Example 61, N-[1-(S)-Methyl-2-(4-trifluoromethoxy-phenylamino)-ethyl]-4-morpholin-4-yl-4-oxo-2-(S)-phenyl-butyramide], the Ki in assay [1] (setting [5]) was in the range of 1000 to 10000 nM. The “Selectivity for Cat. S over Cat. K” value in assay [2] is given as “+ (+, >10)”. The “Selectivity for Cat. S over Cat. L” value in assay [3] is listed as “+ (+, >10)”. Further, the “Selectivity for Cat. S over Cat. B” value in assay [4] was “+ (+, >10)”.

As to `C[C@@H](CNc1ccc(OC(F)(F)F)cc1)NC(=O)[C@H](CC1CCCC1)[C@@H](C)C(=O)N1CCOCC1` [Example 16, 2-(R)-Cyclopentylmethyl-3-(R)-methyl-N-[1-(S)-methyl-2-(4-trifluoromethoxy-phenylamino)-ethyl]-4-morpholin-4-yl-4-oxo-butyramide], in assay [1] (setting [5]), the Ki is 100 to 1000 nM. Further, the “Selectivity for Cat. S over Cat. K” value in assay [2] is on record as “+ (+, >10)”. The “Selectivity for Cat. S over Cat. L” value in assay [3] is “+ (+, >10)”. For the same compound, in assay [4], the “Selectivity for Cat. S over Cat. B” value was “++ (++, >100)”.

Take `CC(=O)N1CCN(C(=O)[C@H](CC2CCCCC2)OC(=O)N[C@@H](C)CN2c3ccc(F)cc3CC2(C)C)CC1` [Example 94, (S,S)-[2-(5-Fluoro-2,2-dimethyl-2,3-dihydro-indol-1-yl)-1-methyl-ethyl]-carbamic acid 2-(4-acetyl-piperazin-1-yl)-1-cyclohexylmethyl-2-oxo-ethyl ester]: the inhibition constant Ki in assay [1] (setting [5]) fell in the range of 1000 to 10000 nM. The “Selectivity for Cat. S over Cat. K” value in assay [2] is on record as “+ (+, >10)”. Moreover, in assay [3], the “Selectivity for Cat. S over Cat. L” value was “+ (+, >10)”. For the same compound, the “Selectivity for Cat. S over Cat. B” value in assay [4] was “+ (+, >10)”.

Take `C[C@@H](CNc1ccc(OC(F)(F)F)cc1)NC(=O)[C@@H](CC(=O)N1CCOCC1)c1ccc(F)cc1` [Example 62, 2-(S)-(4-Fluoro-phenyl)-N-[1-(S)-methyl-2-(4-trifluoromethoxy-phenylamino)-ethyl]-4-morpholin-4-yl-4-oxo-butyramide]: in assay [1] (setting [5]), the Ki was 100 to 1000 nM. For the same compound, in assay [2], the “Selectivity for Cat. S over Cat. K” value is recorded as “++ (++, >100)”. The “Selectivity for Cat. S over Cat. L” value in assay [3] is listed as “++ (++, >100)”. Besides, in assay [4], the “Selectivity for Cat. S over Cat. B” value was “++ (++, >100)”.

The compound `COc1ccc([C@H](CC(=O)N2CCOCC2)C(=O)N[C@H](CNc2ccc(OC(F)(F)F)cc2)C(C)C)cc1` [Example 53, 2-(S)-(4-Methoxy-phenyl)-N-{2-methyl-1-(S)-[(4-trifluoromethoxy-phenylamino)-methyl]-propyl}-4-morpholin-4-yl-4-oxo-butyramide] came in with an inhibition constant Ki in assay [1] of 100 to 1000 nM. The “Selectivity for Cat. S over Cat. K” value in assay [2] was “++ (++, >100)”. Besides, the “Selectivity for Cat. S over Cat. L” value in assay [3] is “++ (++, >100)”. Moreover, the “Selectivity for Cat. S over Cat. B” value in assay [4] is given as “++ (++, >100)”.

Consider `COc1ccc([C@H](CC(=O)N2CCOCC2)C(=O)N[C@@H](C)CNc2ccc(OC(F)(F)F)cc2)cc1` [Example 63, 2-(S)-(4-Methoxy-phenyl)-N-[1-(S)-methyl-2-(4-trifluoromethoxy-phenylamino)-ethyl]-4-morpholin-4-yl-4-oxo-butyramide], for which the inhibition constant (Ki) in assay [1] (setting [5]) was 100 to 1000 nM. In assay [2], the “Selectivity for Cat. S over Cat. K” value is listed as “++ (++, >100)”. In addition, the “Selectivity for Cat. S over Cat. L” value in assay [3] is given as “++ (++, >100)”. For the same compound, the “Selectivity for Cat. S over Cat. B” value in assay [4] is reported as “++ (++, >100)”.

In assay [1], `C[C@@H](CNc1ccc(OC(F)(F)F)cc1)NC(=O)[C@@H](CC(=O)N1CCOCC1)CC1CCCC1` [Example 15, 2-(R)-Cyclopentylmethyl-N-[1-(S)-methyl-2-(4-trifluoromethoxy-phenylamino)-ethyl]-4-morpholin-4-yl-4-oxo-butyramide] gave a Ki below 100 nM. In addition, in assay [2], the “Selectivity for Cat. S over Cat. K” value is “++ (++, >100)”. The “Selectivity for Cat. S over Cat. L” value in assay [3] is “++ (++, >100)”. The “Selectivity for Cat. S over Cat. B” value in assay [4] is “+++ (+++, >1000)”.

Turning to `CC[C@@H](CNc1ccc(OC(F)(F)F)cc1)NC(=O)[C@H](CCC1CCCC1)CC(=O)N1CCOCC1` [Example 36, 2-(R)-(2-Cyclopentyl-ethyl)-4-morpholin-4-yl-4-oxo-N-{1-(S)-[(4-trifluoromethoxy-phenylamino)-methyl]-propyl}-butyramide], the Ki in assay [1] (setting [5]) was below 100 nM. In assay [2], the “Selectivity for Cat. S over Cat. K” value is given as “++ (++, >100)”. The “Selectivity for Cat. S over Cat. L” value in assay [3] is listed as “+ (+, >10)”. Also, in assay [4], the “Selectivity for Cat. S over Cat. B” value was “+++ (+++, >1000)”.

On to `O=C(N[C@@H](CCc1ccccc1)CNc1ccc(OC(F)(F)F)cc1)[C@H](CCC1CCCC1)CC(=O)N1CCOCC1` [Example 37, 2-(R)-(2-Cyclopentyl-ethyl)-4-morpholin-4-yl-4-oxo-N-{3-phenyl-1-(S)-[(4-trifluoromethoxy-phenylamino)-methyl]-propyl}-butyramide], for which the Ki in assay [1] was below 100 nM. In addition, the “Selectivity for Cat. S over Cat. K” value in assay [2] is given as “++ (++, >100)”. The “Selectivity for Cat. S over Cat. L” value in assay [3] was “+ (+, >10)”. In assay [4], the “Selectivity for Cat. S over Cat. B” value was “++ (++, >100)”.

`CC(C)[C@@H](CNc1ccc(OC(F)(F)F)cc1)NC(=O)[C@@H](CC(=O)N1CCOCC1)c1ccc(C(F)(F)F)cc1` [Example 55, N-{2-Methyl-1-(S)-[(4-trifluoromethoxy-phenylamino)-methyl]-propyl}-4-morpholin-4-yl-4-oxo-2-(S)-(4-trifluoromethyl-phenyl)-butyramide] came in with a Ki in assay [1] of 100 to 1000 nM. Also, in assay [2], the “Selectivity for Cat. S over Cat. K” value is given as “+++ (+++, >1000)”. Moreover, the “Selectivity for Cat. S over Cat. L” value in assay [3] is given as “++ (++, >100)”. In assay [4], the “Selectivity for Cat. S over Cat. B” value is recorded as “++ (++, >100)”.

For `O=C(N[C@H](CNc1ccc(OC(F)(F)F)cc1)c1ccccc1)[C@@H](CC(=O)N1CCOCC1)c1ccc(Cl)cc1` [Example 48, 2-(S)-(4-Chloro-phenyl)-4-morpholin-4-yl-4-oxo-N-[1-(S)-phenyl-2-(4-trifluoromethoxy-phenylamino)-ethyl]-butyramide], in assay [1] (setting [5]), the inhibition constant Ki was 100 to 1000 nM. Also, the “Selectivity for Cat. S over Cat. K” value in assay [2] was “+ (+, >10)”. In addition, the “Selectivity for Cat. S over Cat. L” value in assay [3] was “++ (++, >100)”. In assay [4], the “Selectivity for Cat. S over Cat. B” value is given as “++ (++, >100)”.

For `COc1ccc(NC[C@@H](NC(=O)[C@@H](CC(=O)N2CCOCC2)c2ccc(F)cc2)C(C)C)cn1` [Example 64, 2-(S)-(4-Fluoro-phenyl)-N-{1-(S)-[(6-methoxy-pyridin-3-ylamino)-methyl]-2-methyl-propyl}-4-morpholin-4-yl-4-oxo-butyramide], the Ki in assay [1] (setting [5]) was in the range of 100 to 1000 nM. In addition, the “Selectivity for Cat. S over Cat. K” value in assay [2] is “+ (+, >10)”. Also, the “Selectivity for Cat. S over Cat. L” value in assay [3] was “+ (+, >10)”. The “Selectivity for Cat. S over Cat. B” value in assay [4] is “++ (++, >100)”.

Take `C[C@@H](CN1CC(C)(C)c2cc(F)ccc21)NC(=O)[C@H](CC1CCCCC1)NC(=O)N1CCOCC1` [Example 80, (S,S)-Morpholine-4-carboxylic acid {2-cyclohexyl-1-[2-(5-fluoro-3,3-dimethyl-2,3-dihydro-indol-1-yl)-1-methyl-ethylcarbamoyl]-ethyl}-amide]: the Ki in assay [1] (setting [5]) is below 100 nM. The “Selectivity for Cat. S over Cat. K” value in assay [2] is reported as “+++ (+++, >1000)”. Also, in assay [3], the “Selectivity for Cat. S over Cat. L” value is “+ (+, >10)”. For the same compound, the “Selectivity for Cat. S over Cat. B” value in assay [4] was “+++ (+++, >1000)”.
